23 compounds from patent EP2951180B1, “2,6,7,8 SUBSTITUTED PURINES AS HDM2 INHIBITORS” (Merck Sharp & Dohme Corp., priority 2013, dated 2014) can be followed below.

The target in the test is T1, HDM2 (Homo sapiens, UniProt Q00987).
T1 construct: Thioredoxin (N); made in house; host or cells: E. coli strain BL21(DE3)Rosetta
As to the kind of experiment: HDM2 FRET assay (inhibition of binding of FITC labeled p53-pocket peptide to HDM2). The note with it: for IC50: read-out: FRET IC50; for inhibition at 1 µM: read-out: inh. at 1000 nM (FRET). The source says:
Methods: An HDM2 FRET assay was developed to assess the compounds' inhibitory activity towards binding of p53 protein. […] Protein was purified using Ni-affinity chromatography, followed by size exclusion chromatography using Superdex 75 26/60 column. […] The HDM2 assay buffer contained 1x Phosphate Buffered Saline (Invitrogen, Cat#14190), 0.01% BSA (Jackson ImmunoResearch, Cat# 001-000-162), 0.01% Tween-20. In the 1X assay buffer recombinant HDM2 protein, peptide and Lumi4-Tb Cryptate-conjugate mouse anti-6xHis antibody (cisbio, Cat#Tb61HISTLB) were added and transferred to ProxiPlate PLUS (PerkinElmer, Cat#6008269), containing compounds so that final DMSO concentration is 0.1% . Final concentrations of reagents in the assay wells are 0.5 nM HDM2, 0.25nM anti HIS (Tb label) antibody and 3nM peptide. […] Ratio of em520/em495 was used to calculate %inhibition and to obtain IC50 with 4-parameter logistic equation.
IC50 DETERMINATIONS: Dose-response curves were plotted from the inhibition data, from 10 point serial dilutions of inhibitory compounds. Concentration of compound was plotted against em520/Cem495 ratio signal. To generate IC50 values, the dose-response curves were fitted to a standard sigmoidal curve and IC50 values were derived by nonlinear regression analysis.

Where [1] appears, read: 0.5 nM HDM2 (residues 17 to 125), 3nM peptide, two hour incubation at room temperature.

Where two headings read alike, the source gives them in different places.

T1 sequence (Q00987 17-125): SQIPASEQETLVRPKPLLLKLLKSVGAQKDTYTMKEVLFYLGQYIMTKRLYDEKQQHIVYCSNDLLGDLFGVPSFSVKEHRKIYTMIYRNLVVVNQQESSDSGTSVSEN

Broadly, the IC50 is the concentration needed to halve the response being measured. With `C[C@@H](Nc1nc(-c2noc(=O)[nH]2)nc2nc(N3CCOCC(F)(F)C3)n(C[C@H]3CC[C@H](C)CC3)c12)C1CCC1` [Example 11.104, 3-(6-{[(1R)-1-cyclobutylethyl]amino}-8-(6,6-difluoro-1,4-oxazepan-4-yl)-7-[(trans-4-methylcyclohexyl)methyl]-7H-purin-2-yl)-1,2,4-oxadiazol-5(2H)-one], for the setting “Table 11”, the IC50 is 9.24 nM.
For the compound `CC1CN(C)CCN1c1nc2nc(-c3noc(=O)[nH]3)nc(-c3cccc(Cl)c3)c2n1C[C@H]1CC[C@H](C)CC1` (relative stereo) [Example 16.53, 3-{6-(3-chlorophenyl)-8-(2,4-dimethylpiperazin-1-yl)-7-[(trans-4-methylcyclohexyl)methyl]-7H-purin-2-yl}-1,2,4-oxadiazol-5(4H)-one], under setting [1], the half-inhibitory concentration (IC50) is 42.8 nM.
As for `Cc1cccc(-c2nc3nc(C(=O)O)nc(NC(C4CC4)C4CC4)c3n2Cc2ccc(C(F)(F)F)cc2)c1` [Example 6.24, 6-[(dicyclopropylmethyl)amino]-8-(3-methylphenyl)-7-[4-(trifluoromethyl)benzyl]-7H-purine-2-carboxylic acid], the IC50 (Table 6) amounted to 329 nM.
For `C[C@@H](Nc1nc(C(=O)O)nc2nc(N(C)[C@@H](C)c3ccccc3)n(Cc3ccc(C(F)(F)F)cc3)c12)C1CCC1` [Example 9.37, 6-{[(1R)-1-cyclobutylethyl]amino}-8-{methyl[(1S)-1-phenylethyl]amino}-7-[4-(trifluoromethyl)benzyl]-7H-purine-2-carboxylic acid], the IC50 (Table 9) came out at 21.6 nM.
On to `C[C@@H](Nc1nc(-c2noc(=O)[nH]2)nc2nc(N3CCN(S(C)(=O)=O)C[C@H]3c3ccccc3)n(C[C@H]3CC[C@H](C)CC3)c12)C1CCC1` [Example 17.13, 3-(6-{[(1R)-1-cyclobutylethyl]amino}-7-[(trans-4-methylcyclohexyl)methyl]-8-[(2R)-4-(methylsulfonyl)-2-phenylpiperazin-1-yl]-7H-purin-2-yl)-1,2,4-oxadiazol-5(4H)-one], for which the IC50 (Table 17.2) stood at 1.86 nM.
For the compound `CC[C@@H](c1ccccc1)N(C)c1nc2nc(C(=O)O)nc(N[C@H](C)C3CCC3)c2n1Cc1ccc(C(F)(F)F)cc1` [Example 9.58, 6-{[(1R)-1-cyclobutylethyl]amino}-8-{methyl[(1S)-1-phenylpropyl]amino}-7-[4-(trifluoromethyl)benzyl]-7H-purine-2-carboxylic acid], the IC50 (Table 9) amounted to 16.4 nM.
As to `Cc1cccc(-c2nc3nc(C(=O)O)nc(N[C@@H](C)c4cccc(Cl)c4)c3n2Cc2ccc(C(F)(F)F)cc2)c1` [Example 6.26, 6-{[(1S)-1-(3-chlorophenyl)ethyl]amino}-8-(3-methylphenyl)-7-[4-(trifluoromethyl)benzyl]-7H-purine-2-carboxylic acid], the half-inhibitory concentration (IC50) (Table 6) was determined as 6970 nM.
Regarding `C[C@@H](Nc1nc(-c2noc(=O)[nH]2)nc2nc(/C=C/c3ccccc3)n(C[C@H]3CC[C@H](C)CC3)c12)C1CCC1` [Example 21.20, 3-(6-{[(1R)-1-cyclobutylethyl]amino}-7-[(trans-4-methylcyclohexyl)methyl]-8-[(E)-2-phenylethenyl]-7H-purin-2-yl)-1,2,4-oxadiazol-5(4H)-one], the IC50 (Table 21) was found to be 1.89 nM.
As to `Cc1cccc(-c2nc3nc(C(=O)O)nc(N(C)CC4CC4(C)C)c3n2Cc2ccc(C(F)(F)F)cc2)c1` (centres unmarked) [Example 6.90, 6-{[(2,2-dimethylcyclopropyl)methyl](methyl)amino}-8-(3-methylphenyl)-7-[4-(trifluoromethyl)benzyl]-7H-purine-2-carboxylic acid], the inhibition at 1 µM was found to be 34%.
For `CC(C)c1ccnc(-c2nc3nc(C(=O)O)nc(N[C@H](C)C4CCC4)c3n2C[C@H]2CC[C@H](CF)CC2)c1` [Example 18.10, 6-(((R)-1-cyclobutylethyl)amino)-7-((trans-4-(fluoromethyl)cyclohexyl)methyl)-8-(4-isopropylpyridin-2-yl)-7H-purine-2-carboxylic acid], the IC50 (Table 18) turned out to be 9.38 nM.
`Cc1cccc(-c2nc3nc(C(=O)O)nc(N[C@H](CCCO)C4CCC4)c3n2Cc2ccc(Cl)cc2)c1` [Example 7.1, 7-(4-chlorobenzyl)-6-{[(1R)-1-cyclobutyl-4-hydroxybutyl]amino}-8-(3-methylphenyl)-7H-purine-2-carboxylic acid]: the IC50 (Table 7) was 105 nM.
On to `CC(C)C[C@@H]1CCCCN1c1nc2nc(-c3noc(=O)[nH]3)nc(N[C@H](C)C3CCC3)c2n1C[C@H]1CC[C@H](C)CC1` [Example 11.84, 3-(6-{[(1R)-1-cyclobutylethyl]amino}-7-[(trans-4-methylcyclohexyl)methyl]-8-[(2S)-2-(2-methylpropyl)piperidin-1-yl]-7H-purin-2-yl)-1,2,4-oxadiazol-5(4H)-one], for which the IC50 (Table 11) came out at 3.07 nM.
As for `C[C@@H](Nc1nc(-c2noc(=O)[nH]2)nc2nc(C3CCCCC3O)n(C[C@H]3CC[C@H](C)CC3)c12)C1CCC1` (stereo partly drawn) [Example 22.46, 3-(6-{[(1R)-1-cyclobutylethyl]amino}-8-(2-hydroxycyclohexyl)-7-[(trans-4-methylcyclohexyl)methyl] -7H-purin-2-yl)-1,2,4-oxadiazol-5(4H)-one], under “Table 22”, the IC50 was found to be 445 nM.
As for `C[C@@H](Nc1nc(-c2noc(=O)[nH]2)nc2nc(CC(C)(C)C)n(C[C@H]3CC[C@H](C)CC3)c12)C1CCC1` [Example 20.7, 3-(6-{[(1R)-1-cyclobutylethyl]amino}-8-(2,2-dimethylpropyl)-7-[(trans-4-methylcyclohexyl)methyl]-7H-purin-2-yl)-1,2,4-oxadiazol-5(4H)-one], the half-inhibitory concentration (IC50) (Table 20) is 20.9 nM.
For the compound `C[C@@H](Nc1nc(-c2noc(=O)[nH]2)nc2nc(Sc3ccccc3)n(C[C@H]3CC[C@H](C)CC3)c12)C1CCC1` [Example 19.1, 3-[6-{[(1R)-1-cyclobutylethyl]amino}-7-[(trans-4-methylcyclohexyl)methyl]-8-(phenylsulfanyl)-7H-purin-2-yl]-1,2,4-oxadiazol-5(4H)-one], the IC50 (Table 19) came out at 0.763 nM.
For `C[C@@H](Nc1nc(-c2noc(=O)[nH]2)nc2nc(N3CCC[C@H]3C(F)(F)F)n(C[C@H]3CC[C@H](C)CC3)c12)C1CCC1` [Example 11.128, 3-(6-{[(1R)-1-cyclobutylethyl]amino}-7-[(trans-4-methylcyclohexyl)methyl]-8-[(2S)-2-(trifluoromethyl)pyrrolidin-1-yl]-7H-purin-2-yl)-1,2,4-oxadiazol-5(4H)-one], where the note is “Table 11”, the IC50 worked out at 0.642 nM.
For `Cc1cccc(-c2nc3nc(C(=O)O)nc(N4Cc5ccccc5C4)c3n2Cc2ccc(C(F)(F)F)cc2)c1` [Example 6.66, 6-(1,3-dihydro-2H-isoindol-2-yl)-8-(3-methylphenyl)-7-[4-(trifluoromethyl)benzyl]-7H-purine-2-carboxylic acid], the inhibition at 1 µM turned out to be 46%.
For the compound `Cc1cccc(-c2nc3nc(C(=O)O)nc(N(C)CC(C)C)c3n2Cc2ccc(C(F)(F)F)cc2)c1` [Example 6.72, 6-[methyl(2-methylpropyl)amino]-8-(3-methylphenyl)-7-[4-(trifluoromethyl)benzyl]-7H-purine-2-carboxylic acid], the inhibition at 1 µM worked out at 40%.
`Cc1cccc(-c2nc3nc(C(=O)O)nc(N[C@@H](C4CC4)C(F)(F)F)c3n2Cc2ccc(C(F)(F)F)cc2)c1` [Example 6.53, 6-{[(1S)-1-cyclopropyl-2,2,2-trifluoroethyl]amino}-8-(3-methylphenyl)-7-[4-(trifluoromethyl)benzyl]-7H-purine-2-carboxylic acid]: the IC50 (Table 6) was determined as 419 nM.
The same measure, in the same setting: with `CCCCN(C)c1nc(C(=O)O)nc2nc(-c3cccc(C)c3)n(Cc3ccc(C(F)(F)F)cc3)c12` [Example 6.83, 6-[butyl(methyl)amino]-8-(3-methylphenyl)-7-[4-(trifluoromethyl)benzyl]-7H-purine-2-carboxylic acid] the figure was 834 nM.
Consider `C[C@H](CO)Nc1nc2nc(-c3n[nH]c(=O)o3)nc(-c3cccc(Cl)c3)c2n1C[C@H]1CC[C@H](C)CC1` [Example 16.46, 5-{6-(3-chlorophenyl)-8-{[(1R)-2-hydroxy-1-methylethyl]amino}-7-[(trans-4-methylcyclohexyl)methyl]-7H-purin-2-yl}-1,3,4-oxadiazol-2(3H)-one], for which the half-inhibitory concentration (IC50) under setting [1] amounted to 71 nM.
As to `Cc1cccc(-c2nc3nc(C(=O)O)nc(NC(C)CC(C)C)c3n2Cc2ccc(C(F)(F)F)cc2)c1` (centres unmarked) [Example 6.62, 6-[(1,3-dimethylbutyl)amino]-8-(3-methylphenyl)-7-[4-(trifluoromethyl)benzyl]-7H-purine-2-carboxylic acid], the inhibition at 1 µM turned out to be 34%.
With `CCCCN(CC)c1nc(C(=O)O)nc2nc(-c3cccc(C)c3)n(Cc3ccc(C(F)(F)F)cc3)c12` [Example 6.69, 6-[butyl(ethyl)amino]-8-(3-methylphenyl)-7-[4-(trifluoromethyl)benzyl]-7H-purine-2-carboxylic acid], the IC50 (Table 6) was 621 nM.
